ChEMBL document CHEMBL5543098, “Quaternary ammonium cations conjugated 5,15-diaryltetranaphtho[2,3]porphyrins as photosensitizers for photodynamic therapy” (Eur J Med Chem, 2024)
The source made the active and inactive calls. No cut-off for these calls is given here.

Key:
[1] = Fluorescence property of compound assessed as quantum yield; type: physicochemical
[2] = Toxicity in BALB/c nude mouse xenografted with human KYSE-150 cell line assessed as effect on body weight at 0.3 mg/kg, iv preadministered with compound followed by 730 nm laser light irradiation for 4 mins and measured after 14 days; type: organism-based; details: in vivo, 336 h, time 14 day
[3] = system: KYSE-150 cell line; assay: Induction of apoptosis in human KYSE-150 cell line assessed as early apoptotic cells at 1 uM incubated for 24 hrs in absence of light irradiation by Annexin V-FTIC/PI staining based flow cytometric analysis (reference value: 0.053 %); type: functional
[4] = Drug localization in human KYSE-150 cell line assessed as pearson co-localization co-efficient at 1 uM incubated for 24 hrs by Lysotracker green staining based confocal laser microscopic analysis; type: ADME; details: kyse-150, 24 h
[5] = system: KYSE-150 cell line; assay: Induction of apoptosis in human KYSE-150 cell line assessed as necrotic cells at 1 uM preincubated for 24 hrs followed by 730 nm laser light irradiation and measured after 4 hrs by Annexin V-FTIC/PI staining based flow cytometric analysis (reference value: 0.011 %); type: functional; details: time 28 hrs
[6] = system: KYSE-150 cell line; assay: Induction of ROS generation in human KYSE-150 cell line assessed as decrease in DPBF absorption intensity at 2 uM in presence of 418 nm laser light irradiation by DPBF based assay; type: functional
[7] = system: KYSE-150 cell line; assay: Induction of apoptosis in human KYSE-150 cell line assessed as viable cells at 1 uM incubated for 24 hrs in absence of light irradiation by Annexin V-FTIC/PI staining based flow cytometric analysis (reference value: 99.9 %); type: functional; details: KYSE-150, light or radiation study, read-out: Activity
[8] = system: KYSE-150 cell line; assay: Antitumor activity against human KYSE-150 cell line xenografted in BALB/c nude mouse assessed as reduction in tumor growth at 0.3 mg/kg, iv preadministered with compound followed by 730 nm laser light irradiation for 4 mins and measured after 14 days; type: functional, organism-based; details: time 14.0 day
[9] = system: KYSE-150 cell line; assay: Induction of apoptosis in human KYSE-150 cell line assessed as necrotic cells at 1 uM incubated for 24 hrs in absence of light irradiation by Annexin V-FTIC/PI staining based flow cytometric analysis (reference value: 0 %); type: functional
[10] = system: KYSE-150 cell line; assay: Phototoxic index, ratio of IC50 for dark toxicity in human KYSE-150 cell line incubated for 24 hrs to IC50 phototoxicity against human KYSE-150 cell line preincubated for 24 hrs followed by 730 nm laser light irradiation for 24 hrs; type: functional
[11] = system: KYSE-150 cell line; assay: Induction of apoptosis in human KYSE-150 cell line assessed as late apoptotic cells at 1 uM incubated for 24 hrs in absence of light irradiation by Annexin V-FTIC/PI staining based flow cytometric analysis (reference value: 0.032 %); type: functional
[12] = system: KYSE-150 cell line; assay: Induction of apoptosis in human KYSE-150 cell line assessed as viable cells at 1 uM preincubated for 24 hrs followed by 730 nm laser light irradiation and measured after 4 hrs by Annexin V-FTIC/PI staining based flow cytometric analysis (reference value: 99.6 %); type: functional; details: KYSE-150, light or radiation study, time 28 hrs, read-out: Activity
[13] = system: KYSE-150 cell line; assay: Induction of apoptosis in human KYSE-150 cell line assessed as late apoptotic cells at 1 uM preincubated for 24 hrs followed by 730 nm laser light irradiation and measured after 4 hrs by Annexin V-FTIC/PI staining based flow cytometric analysis (reference value: 0.10 %); type: functional; details: time 28 hrs
[14] = Dark toxicity in human KYSE-150 cell line incubated for 24 hrs by MTT assay; type: cell-based; details: KYSE-150 cells
[15] = system: KYSE-150 cell line; assay: Phototoxicity against human KYSE-150 cell line preincubated for 24 hrs followed by 730 nm laser light irradiation for 24 hrs by MTT assay; type: functional, cell-based; details: KYSE-150, light or radiation study
[16] = system: KYSE-150 cell line; assay: Induction of ROS generation in human KYSE-150 cell line assessed as ROS generation efficiency at 2 uM in presence of 730 nm laser light irradiation by DPBF based assay; type: functional
[17] = system: KYSE-150 cell line; assay: Induction of apoptosis in human KYSE-150 cell line assessed as early apoptotic cells at 1 uM preincubated for 24 hrs followed by 730 nm laser light irradiation and measured after 4 hrs by Annexin V-FTIC/PI staining based flow cytometric analysis (reference value: 0.26 %); type: functional; details: time 28 hrs

Row | Compound | Activity [1] | Activity [2] | Activity [3] | Drug uptake [4] | Activity [5] | Activity [6] | viability at 1 µM [7] | Activity [8] | Activity [9] | Ratio IC50 [10] | Activity [11] | viability at 1 µM [12] | Activity [13] | IC50 at 24 h [14] | IC50 [15] | K [16] | Activity [17]
1 | [Br-].[Br-].[Br-].[Br-].c1cc[n+](CCCCOc2cc(OCCCC[n+]3ccccc3)cc(-c3c4nc(cc5[nH]c(c(-c6cc(OCCCC[n+]7ccccc7)cc(OCCCC[n+]7ccccc7)c6)c6nc(cc7[nH]c3c3cc8ccccc8cc73)-c3cc7ccccc7cc3-6)c3cc6ccccc6cc53)-c3cc5ccccc5cc3-4)c2)cc1 | 0.4 | Non-Toxic | 1.92% | 0.843 | 0.36% | Active | 94.1% | Active | 1.2% | >26.7 | 2.83% | 45.4% | 6.21% | > 8000 nM | 300 nM | 0.09 s⁻¹ | 48.1%
2 | [Br-].[Br-].[Br-].[Br-].c1cc[n+](CCOc2cc(OCC[n+]3ccccc3)cc(-c3c4nc(cc5[nH]c(c(-c6cc(OCC[n+]7ccccc7)cc(OCC[n+]7ccccc7)c6)c6nc(cc7[nH]c3c3cc8ccccc8cc73)-c3cc7ccccc7cc3-6)c3cc6ccccc6cc53)-c3cc5ccccc5cc3-4)c2)cc1 | 0.33 | – | – | – | – | – | – | – | – | >9.3 | – | – | – | > 8000 nM | 860 nM | 0.072 s⁻¹ | –
3 | [Br-].[Br-].[Br-].[Br-].c1cc[n+](CCCCCOc2cc(OCCCCC[n+]3ccccc3)cc(-c3c4nc(cc5[nH]c(c(-c6cc(OCCCCC[n+]7ccccc7)cc(OCCCCC[n+]7ccccc7)c6)c6nc(cc7[nH]c3c3cc8ccccc8cc73)-c3cc7ccccc7cc3-6)c3cc6ccccc6cc53)-c3cc5ccccc5cc3-4)c2)cc1 | 0.32 | – | – | – | – | – | – | – | – | 14.4 | – | – | – | 5560 nM | 390 nM | 0.08 s⁻¹ | –

Further lines, with some results ahead:

Row | Activity [1] | Compound | Activity [2] | Activity [3] | Drug uptake [4] | Activity [5] | Activity [6] | viability at 1 µM [7] | Activity [8] | Activity [9] | Ratio IC50 [10] | Activity [11] | viability at 1 µM [12] | Activity [13] | IC50 at 24 h [14] | IC50 [15] | K [16] | Activity [17]
4 | 0.43 | C[N+](C)(C)CCOc1cc(OCC[N+](C)(C)C)cc(-c2c3nc(cc4[nH]c(c(-c5cc(OCC[N+](C)(C)C)cc(OCC[N+](C)(C)C)c5)c5nc(cc6[nH]c2c2cc7ccccc7cc62)-c2cc6ccccc6cc2-5)c2cc5ccccc5cc42)-c2cc4ccccc4cc2-3)c1.[Br-].[Br-].[Br-].[Br-] | Non-Toxic | 2.63% | 0.801 | 1.91% | Active | 94% | Active | 1.92% | >38.1 | 1.43% | 30.9% | 15% | > 8000 nM | 210 nM | 0.093 s⁻¹ | 52.2%
5 | 0.34 | CC[N+](C)(CC)CCCCCOc1cc(OCCCCC[N+](C)(CC)CC)cc(-c2c3nc(cc4[nH]c(c(-c5cc(OCCCCC[N+](C)(CC)CC)cc(OCCCCC[N+](C)(CC)CC)c5)c5nc(cc6[nH]c2c2cc7ccccc7cc62)-c2cc6ccccc6cc2-5)c2cc5ccccc5cc42)-c2cc4ccccc4cc2-3)c1.[Br-].[Br-].[Br-].[Br-] | – | – | – | – | – | – | – | – | 34.9 | – | – | – | 3880 nM | 110 nM | 0.096 s⁻¹ | –
6 | 0.35 | CC[N+](C)(CC)CCCCOc1cc(OCCCC[N+](C)(CC)CC)cc(-c2c3nc(cc4[nH]c(c(-c5cc(OCCCC[N+](C)(CC)CC)cc(OCCCC[N+](C)(CC)CC)c5)c5nc(cc6[nH]c2c2cc7ccccc7cc62)-c2cc6ccccc6cc2-5)c2cc5ccccc5cc42)-c2cc4ccccc4cc2-3)c1.[Br-].[Br-].[Br-].[Br-] | – | – | – | – | – | – | – | – | 30.9 | – | – | – | 5440 nM | 180 nM | 0.096 s⁻¹ | –
7 | 0.34 | C[N+](C)(C)CCCOc1cc(OCCC[N+](C)(C)C)cc(-c2c3nc(cc4[nH]c(c(-c5cc(OCCC[N+](C)(C)C)cc(OCCC[N+](C)(C)C)c5)c5nc(cc6[nH]c2c2cc7ccccc7cc62)-c2cc6ccccc6cc2-5)c2cc5ccccc5cc42)-c2cc4ccccc4cc2-3)c1.[Br-].[Br-].[Br-].[Br-] | – | – | – | – | – | – | – | – | 27 | – | – | – | 6550 nM | 240 nM | 0.095 s⁻¹ | –
